Experimental data reported in the CheMixHub viscosity set.
± gives the uncertainty stated by the source.

Assay: xn = mol fraction of the nth substance listed

SMILES: COC(C)(C)C + CC(C)O
- viscosity (293.15 K, 101 kPa, x1 = 0.0305): 2.145 ± 0.088 mPa·s
- viscosity (298.15 K, 101 kPa, x1 = 0.0702): 1.595 ± 0.065 mPa·s
- viscosity (303.15 K, 101 kPa, x1 = 0.0702): 1.395 ± 0.057 mPa·s
- viscosity (308.15 K, 101 kPa, x1 = 0.0914): 1.145 ± 0.047 mPa·s

SMILES: CC(O)C(=O)O (stereo not drawn) + O=C(O)[C@@H]1CCCN1
- viscosity (323.15 K, 100 kPa, x1 = 0.5): 997.4 ± 140 mPa·s

SMILES: Clc1cccc2ccccc12 + C=Cc1ccccc1
- viscosity (298.15 K, 101.33 kPa, x2 = 0.1076): 2.356 ± 0.054 mPa·s
- viscosity (298.15 K, 101.33 kPa, x2 = 0.2005): 2.07 ± 0.048 mPa·s
- viscosity (298.15 K, 101.33 kPa, x2 = 0.301): 1.778 ± 0.041 mPa·s
- viscosity (298.15 K, 101.33 kPa, x2 = 0.4032): 1.549 ± 0.036 mPa·s
- viscosity (298.15 K, 101.33 kPa, x2 = 0.5003): 1.379 ± 0.033 mPa·s
- viscosity (298.15 K, 101.33 kPa, x2 = 0.6015): 1.216 ± 0.029 mPa·s
- viscosity (298.15 K, 101.33 kPa, x2 = 0.684): 1.108 ± 0.027 mPa·s
- viscosity (298.15 K, 101.33 kPa, x2 = 0.7992): 0.9675 ± 0.024 mPa·s
- viscosity (298.15 K, 101.33 kPa, x2 = 0.9033): 0.8331 ± 0.021 mPa·s
- viscosity (303.15 K, 101.33 kPa, x2 = 0.1076): 2.103 ± 0.048 mPa·s
- viscosity (303.15 K, 101.33 kPa, x2 = 0.2005): 1.864 ± 0.043 mPa·s
- viscosity (303.15 K, 101.33 kPa, x2 = 0.301): 1.617 ± 0.038 mPa·s
- viscosity (303.15 K, 101.33 kPa, x2 = 0.4032): 1.412 ± 0.034 mPa·s
- viscosity (303.15 K, 101.33 kPa, x2 = 0.5003): 1.259 ± 0.03 mPa·s
- viscosity (303.15 K, 101.33 kPa, x2 = 0.6015): 1.115 ± 0.027 mPa·s
- viscosity (303.15 K, 101.33 kPa, x2 = 0.684): 1.013 ± 0.025 mPa·s
- viscosity (303.15 K, 101.33 kPa, x2 = 0.7992): 0.91 ± 0.023 mPa·s
- viscosity (303.15 K, 101.33 kPa, x2 = 0.9033): 0.8013 ± 0.021 mPa·s
- viscosity (308.15 K, 101.33 kPa, x2 = 0.1076): 1.884 ± 0.044 mPa·s
- viscosity (308.15 K, 101.33 kPa, x2 = 0.2005): 1.677 ± 0.039 mPa·s
- viscosity (308.15 K, 101.33 kPa, x2 = 0.301): 1.47 ± 0.035 mPa·s
- viscosity (308.15 K, 101.33 kPa, x2 = 0.4032): 1.283 ± 0.031 mPa·s
- viscosity (308.15 K, 101.33 kPa, x2 = 0.5003): 1.152 ± 0.028 mPa·s
- viscosity (308.15 K, 101.33 kPa, x2 = 0.6015): 1.036 ± 0.025 mPa·s
- viscosity (308.15 K, 101.33 kPa, x2 = 0.684): 0.9455 ± 0.024 mPa·s
- viscosity (308.15 K, 101.33 kPa, x2 = 0.7992): 0.8446 ± 0.021 mPa·s
- viscosity (308.15 K, 101.33 kPa, x2 = 0.9033): 0.7413 ± 0.019 mPa·s

SMILES: CCCCn1cc[n+](C)c1.F[P-](F)(F)(F)(F)F + CC#N
- viscosity (298.15 K, 101 kPa, x2 = 0.1938): 92.9 ± 24 mPa·s
- viscosity (298.15 K, 101 kPa, x2 = 0.5896): 8.84 ± 1 mPa·s

SMILES: C[N+](C)(C)CC(=O)O.[Cl-] + O
- viscosity (293.15 K, 101 kPa, x1 = 0.000448): 1.007 ± 0.021 mPa·s
- viscosity (293.15 K, 101 kPa, x1 = 0.000896): 1.011 ± 0.022 mPa·s
- viscosity (293.15 K, 101 kPa, x1 = 0.00135): 1.016 ± 0.022 mPa·s
- viscosity (293.15 K, 101 kPa, x1 = 0.0018): 1.02 ± 0.022 mPa·s
- viscosity (293.15 K, 101 kPa, x1 = 0.002247): 1.025 ± 0.022 mPa·s
- viscosity (293.15 K, 101 kPa, x1 = 0.002691): 1.029 ± 0.022 mPa·s
- viscosity (293.15 K, 101 kPa, x1 = 0.003581): 1.038 ± 0.022 mPa·s
- viscosity (293.15 K, 101 kPa, x1 = 0.004484): 1.048 ± 0.022 mPa·s
- viscosity (293.15 K, 101 kPa, x1 = 0.005363): 1.056 ± 0.023 mPa·s
- viscosity (293.15 K, 101 kPa, x1 = 0.006268): 1.066 ± 0.023 mPa·s
- viscosity (293.15 K, 101 kPa, x1 = 0.007163): 1.075 ± 0.023 mPa·s
- viscosity (298.15 K, 101 kPa, x1 = 0.000448): 0.8948 ± 0.019 mPa·s
- viscosity (298.15 K, 101 kPa, x1 = 0.000896): 0.8992 ± 0.019 mPa·s
- viscosity (298.15 K, 101 kPa, x1 = 0.00135): 0.9038 ± 0.019 mPa·s
- viscosity (298.15 K, 101 kPa, x1 = 0.0018): 0.9082 ± 0.019 mPa·s
- viscosity (298.15 K, 101 kPa, x1 = 0.002247): 0.9126 ± 0.019 mPa·s
- viscosity (298.15 K, 101 kPa, x1 = 0.002691): 0.917 ± 0.019 mPa·s
- viscosity (298.15 K, 101 kPa, x1 = 0.003581): 0.9259 ± 0.02 mPa·s
- viscosity (298.15 K, 101 kPa, x1 = 0.004484): 0.9348 ± 0.02 mPa·s
- viscosity (298.15 K, 101 kPa, x1 = 0.005363): 0.9435 ± 0.02 mPa·s
- viscosity (298.15 K, 101 kPa, x1 = 0.006268): 0.9526 ± 0.02 mPa·s
- viscosity (298.15 K, 101 kPa, x1 = 0.007163): 0.9616 ± 0.021 mPa·s
- viscosity (303.15 K, 101 kPa, x1 = 0.000448): 0.8017 ± 0.017 mPa·s
- viscosity (303.15 K, 101 kPa, x1 = 0.000896): 0.8061 ± 0.017 mPa·s
- viscosity (303.15 K, 101 kPa, x1 = 0.00135): 0.8106 ± 0.017 mPa·s
- viscosity (303.15 K, 101 kPa, x1 = 0.0018): 0.815 ± 0.017 mPa·s
- viscosity (303.15 K, 101 kPa, x1 = 0.002247): 0.8193 ± 0.017 mPa·s
- viscosity (303.15 K, 101 kPa, x1 = 0.002691): 0.8237 ± 0.017 mPa·s
- viscosity (303.15 K, 101 kPa, x1 = 0.003581): 0.8324 ± 0.018 mPa·s
- viscosity (303.15 K, 101 kPa, x1 = 0.004484): 0.8413 ± 0.018 mPa·s
- viscosity (303.15 K, 101 kPa, x1 = 0.005363): 0.85 ± 0.018 mPa·s
- viscosity (303.15 K, 101 kPa, x1 = 0.006268): 0.859 ± 0.018 mPa·s
- viscosity (303.15 K, 101 kPa, x1 = 0.007163): 0.8677 ± 0.018 mPa·s
- viscosity (308.15 K, 101 kPa, x1 = 0.000448): 0.7233 ± 0.015 mPa·s
- viscosity (308.15 K, 101 kPa, x1 = 0.000896): 0.7276 ± 0.015 mPa·s
- viscosity (308.15 K, 101 kPa, x1 = 0.00135): 0.7321 ± 0.016 mPa·s
- viscosity (308.15 K, 101 kPa, x1 = 0.0018): 0.7365 ± 0.016 mPa·s
- viscosity (308.15 K, 101 kPa, x1 = 0.002247): 0.7408 ± 0.016 mPa·s
- viscosity (308.15 K, 101 kPa, x1 = 0.002691): 0.7452 ± 0.016 mPa·s
- viscosity (308.15 K, 101 kPa, x1 = 0.003581): 0.7539 ± 0.016 mPa·s
- viscosity (308.15 K, 101 kPa, x1 = 0.004484): 0.7627 ± 0.016 mPa·s
- viscosity (308.15 K, 101 kPa, x1 = 0.005363): 0.7712 ± 0.016 mPa·s
- viscosity (308.15 K, 101 kPa, x1 = 0.006268): 0.7799 ± 0.017 mPa·s
- viscosity (308.15 K, 101 kPa, x1 = 0.007163): 0.789 ± 0.017 mPa·s
- viscosity (313.15 K, 101 kPa, x1 = 0.000448): 0.6568 ± 0.014 mPa·s
- viscosity (313.15 K, 101 kPa, x1 = 0.000896): 0.661 ± 0.014 mPa·s
- viscosity (313.15 K, 101 kPa, x1 = 0.00135): 0.6654 ± 0.014 mPa·s
- viscosity (313.15 K, 101 kPa, x1 = 0.0018): 0.6697 ± 0.014 mPa·s
- viscosity (313.15 K, 101 kPa, x1 = 0.002247): 0.674 ± 0.014 mPa·s
- viscosity (313.15 K, 101 kPa, x1 = 0.002691): 0.6783 ± 0.014 mPa·s
- viscosity (313.15 K, 101 kPa, x1 = 0.003581): 0.687 ± 0.015 mPa·s
- viscosity (313.15 K, 101 kPa, x1 = 0.004484): 0.6956 ± 0.015 mPa·s
- viscosity (313.15 K, 101 kPa, x1 = 0.005363): 0.7043 ± 0.015 mPa·s
- viscosity (313.15 K, 101 kPa, x1 = 0.006268): 0.713 ± 0.015 mPa·s
- viscosity (313.15 K, 101 kPa, x1 = 0.007163): 0.7217 ± 0.015 mPa·s
- viscosity (318.15 K, 101 kPa, x1 = 0.000896): 0.6055 ± 0.013 mPa·s
- viscosity (318.15 K, 101 kPa, x1 = 0.0018): 0.614 ± 0.013 mPa·s
- viscosity (318.15 K, 101 kPa, x1 = 0.002247): 0.6184 ± 0.013 mPa·s
- viscosity (318.15 K, 101 kPa, x1 = 0.002691): 0.6227 ± 0.013 mPa·s
- viscosity (318.15 K, 101 kPa, x1 = 0.003581): 0.6313 ± 0.013 mPa·s
- viscosity (318.15 K, 101 kPa, x1 = 0.004484): 0.6401 ± 0.014 mPa·s
- viscosity (318.15 K, 101 kPa, x1 = 0.005363): 0.6486 ± 0.014 mPa·s
- viscosity (318.15 K, 101 kPa, x1 = 0.006268): 0.6575 ± 0.014 mPa·s
- viscosity (318.15 K, 101 kPa, x1 = 0.007163): 0.6664 ± 0.014 mPa·s
